pIC50: −log10 of the molar value. Like-named read-outs stand apart in the source and are kept apart here.

One assay concerns the target T1, adenosine A2 receptor (Rattus norvegicus, UniProt P30543).
T1 construct: Brains were thawed and then kept on ice while the striata were dissected out; tissue Pel-Freez (Rogers, Ark.); host or cells: rat striatum (Sprague-Dawley brains; Long-Evans gave essentially identical results)
The experiment in a line: Adenosine A2 receptor binding (RBA-2), displacement of [3H]NECA. How it is done: Brains from 200-500 g mixed sex Sprague-Dawley rats were purchased from Pel-Freez (Rogers, Ark.). […] Brains were thawed and then kept on ice while the striata were dissected out. […] The suspension was centrifuged at 50,000 xg for ten minutes, the supernatant discarded, the pellet resuspended in 10 vol ice-cold Tris as above, recentrifuged, resuspended at 1 g/5 ml, and stored in plastic vials at -70° C. […] When needed, tissue was thawed at room temperature, disrupted in a Polytron, and kept on ice until used.
All incubations were for 60 minutes at 25° C. in 12×75 mm glass tubes containing 1 ml Tris with 5 mg original tissue weight of rat weight of rat striatal membranes, 4 nM [^3 H]-N-ethyl adenosine-5'-carboxamide ([^3 H]NECA), 50 nM N^6 -cyclopentyladenosine (to eliminate A1 receptor binding), 10 mM MgCl2, 0.1 units/ml of adenosine deaminase and 1% dimethylsulfoxide. N^6 -Cyclopentyladenosine was dissolved at 10 mM in 0.02N HCl and diluted in Tris. […] Test compounds were dissolved at 10 mM in dimethylsulfoxide on the same day as the experiment, and diluted in dimethylsulfoxide to 100× the final incubation concentration. […] [^3 H]NECA was diluted to 40 nM in Tris. The membrane suspension (5 mg/0.79 ml) contained sufficient MgCl2 and adenosine deaminase to give 10 mM and 0.1 units/ml, respectively, final concentration in the incubation. […] After all additions, the rack of tubes was vortexed, and the tubes were then incubated for 60 min at 25° C. in a shaking water bath. The rack of tubes was vortexed an additional time halfway through the incubation.
Incubations were terminated by filtration through 2.4 cm GF/B filters under reduced pressure. Each tube was filtered as follows: the contents of the tube were poured onto the filter, 4 ml of ice-cold Tris were added to the tube and the contents poured onto the filter, and the filter was washed twice with 4 ml of ice-cold Tris. The filtration was complete in about twelve seconds.
Nonspecific binding was defined as binding in the presence of 100 μM N^6 -cyclopentyladenosine, and specific binding was defined as total binding minus nonspecific binding. The IC50 was calculated by weighted nonlinear least squares curve-fitting to the mass-action equation. [formula] where Y is cpm bound
T is cpm total binding without drug
S is cpm specific binding without drug
D is the concentration of drug and
K is the IC50 of the drug
Weighting factors were calculated under the assumption that the standard deviation was proportional to the predicted value of Y. Nonspecific binding was treated as a very large (infinite) concentration of drug in the computer analysis.

In a further assay the test system is male Swiss-Webster mice. The experiment in a line: Antiwrithing (AW) test, acetic acid. Type of assay: in vivo. Particulars: Mus musculus, sc; subcutaneous, 20 minutes before acetic acid i.p.; read-out: ED50, suppression of writhing by 50% relative to vehicle controls. Here is the method:
The antiwrithing (AW) test provides preliminary assessment of compounds with potential analgesic activity. The test is performed in male Swiss-Webster mice. Compounds are administered subcutaneously in aqueous 0.2% methylcellulose or other appropriate vehicles in volumes of 10 ml/kg. Dosages represent active moiety.
Acetic acid (0.6%, 10 ml/kg) is injected intraperitoneally 20 minutes after administration of the adenosine agonist. Writhing movements are counted for five minutes starting seven minutes after the acetic acid injection. Writhing is defined as abdominal constriction and stretching of the body and hind legs with concave arching of the back. Data are expressed as ED50 values, where the ED50 is the dose necessary to suppress writhing by 50% relative to vehicle controls. ED50 values are calculated by nonlinear regression analysis.

Setting [1] is: 4 nM [3H]NECA, 50 nM N6-cyclopentyladenosine, rat striatal membranes, read-out: RBA-2 (IC50, adenosine A2 receptor affinity).

T1 sequence (P30543 whole entry): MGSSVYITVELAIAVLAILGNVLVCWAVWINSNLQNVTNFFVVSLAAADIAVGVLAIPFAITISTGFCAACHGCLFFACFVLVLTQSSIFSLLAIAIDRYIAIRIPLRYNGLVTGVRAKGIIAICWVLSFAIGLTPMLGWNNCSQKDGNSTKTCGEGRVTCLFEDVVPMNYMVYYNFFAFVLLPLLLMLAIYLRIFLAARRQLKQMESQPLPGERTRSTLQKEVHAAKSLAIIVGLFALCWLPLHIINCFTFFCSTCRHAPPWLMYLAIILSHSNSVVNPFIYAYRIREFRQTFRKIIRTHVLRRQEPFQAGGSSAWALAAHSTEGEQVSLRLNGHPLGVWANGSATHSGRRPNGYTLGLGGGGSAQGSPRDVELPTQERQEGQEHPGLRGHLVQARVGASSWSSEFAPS

For `OCC(O)CNc1ncnc2c1ncn2[C@@H]1O[C@H](CO)[C@@H](O)[C@@H]1O` (stereo partly drawn) [Example 1, (R,S)-N^6 [2,3-Dihydroxypropyl]adenosine], the pIC50 at adenosine A2 receptor (setting [1]) was 4.72. Further, the ED50 with male Swiss-Webster mice is 0.07 mg/kg.

`OC[C@@H](O)CNc1ncnc2c1ncn2[C@@H]1O[C@H](CO)[C@@H](O)[C@H]1O` [Example 3]: on adenosine A2 receptor, the pIC50 was 4.70.

Turning to `CC1(C)OCC(CNc2ncnc3c2ncn3[C@@H]2O[C@H](CO)[C@@H](O)[C@H]2O)O1` (stereo partly drawn) [Example 4, (R,S)-N^6-[2,3Dihydroxypropylisopropylidene]adenosine], the pIC50 at adenosine A2 receptor (setting [1]) was 4.62.

In the case of `CC1(C)OC[C@@H](CNc2ncnc3c2ncn3[C@@H]2O[C@H](CO)[C@@H](O)[C@H]2O)O1` [Example 5, (R)-N^6-[2,3-Dihydroxypropylisopropylidene]-adenosine], at adenosine A2 receptor (setting [1]), the pIC50 is 4.82.

Take `Nc1nc(NCC(O)CO)c2ncn([C@@H]3O[C@H](CO)[C@@H](O)[C@H]3O)c2n1` (stereo partly drawn) [Example 8]: the pIC50 on adenosine A2 receptor (setting [1]) was 4.12.
